Reference: paper PMC12064818, “A general assay platform to study protein pharmacology using ligand-dependent structural dynamics” (Nature Communications, 2025)

What follows are compounds tested against T1, FLuc-C-HiBiT (Photinus pyralis, UniProt P08659) (assay: biochemical). Conditions: enzyme activity, 10 uM ATP; read-out: IC50 or SDR50 (mM) / FLuc E.
T1 construct: firefly luciferase with C-terminal HiBiT tag, E. coli expressed
T1 sequence (P08659 whole entry, looked up): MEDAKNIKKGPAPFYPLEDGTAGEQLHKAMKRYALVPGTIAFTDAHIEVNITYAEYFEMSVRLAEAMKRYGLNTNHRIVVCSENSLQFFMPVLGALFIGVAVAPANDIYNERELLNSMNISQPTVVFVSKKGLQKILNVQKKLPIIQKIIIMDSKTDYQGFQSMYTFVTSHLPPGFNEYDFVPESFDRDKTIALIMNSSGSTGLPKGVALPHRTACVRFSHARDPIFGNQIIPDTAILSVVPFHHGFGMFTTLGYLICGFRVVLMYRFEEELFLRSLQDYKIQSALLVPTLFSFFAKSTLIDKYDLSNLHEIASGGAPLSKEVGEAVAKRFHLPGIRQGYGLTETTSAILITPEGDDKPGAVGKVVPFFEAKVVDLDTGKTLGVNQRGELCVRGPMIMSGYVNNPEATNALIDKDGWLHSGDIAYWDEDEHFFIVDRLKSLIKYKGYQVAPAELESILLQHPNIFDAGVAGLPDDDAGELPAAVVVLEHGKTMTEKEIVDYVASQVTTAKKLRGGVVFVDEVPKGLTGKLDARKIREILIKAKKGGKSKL

Q: `Cc1cccc(OCCn2nnc3sc4c(c3c2=O)CCCC4)c1` [NCGC00117282-01] was tested. Which IC50 did it give?
A: 12.4 µM

Q: For `Cc1ccc2sc(-c3ccc(N)cc3)nc2c1` [NCGC00117377-01], which IC50 is on record?
A: 0.279 µM

Q: Which IC50 does the source give for `CCCc1nn2cc(-c3ccc(C)c(C)c3)nc2s1` [NCGC00117454-01] here?
A: 0.624 µM

Q: Which IC50 does the source give for `CCCCCc1nn2cc(-c3ccccc3)nc2s1` [NCGC00117458-01] here?
A: 0.624 µM

Q: For `CCC(CC)c1nn2cc(-c3ccccc3)nc2s1` [NCGC00117460-01], which IC50 is on record?
A: 0.881 µM

Q: How did the IC50 turn out when `CCOc1ccc(-c2cn3nc(CC(C)C)sc3n2)cc1` [NCGC00117462-01] was run?
A: 4.95 µM

Q: Which IC50 does the source give for `COc1cccc(-c2cn3ncsc3n2)c1` [NCGC00117781-01] here?
A: 11.1 µM

Q: With `COc1ccc(OCC(=O)Nc2nc(-c3ccc(Br)cc3)ns2)cc1` [NCGC00118248-01] as the compound, how does the IC50 read?
A: > 30 µM

Q: With `Cc1ccc(/C=C/C(=O)N2CCC(c3nc4ccccc4o3)CC2)cc1` [NCGC00118334-01] as the compound, how does the IC50 read?
A: 11.1 µM

Q: For `COC(=O)c1c(-c2cccs2)csc1NC(=O)c1ccc(Br)cc1` [NCGC00118335-01], which IC50 is on record?
A: 11.1 µM

Q: `COC(=O)c1c(-c2cccs2)csc1NC(=O)c1ccc(C)cc1` [NCGC00118339-01] was tested. Which IC50 did it give?
A: 15.7 µM

Q: With `Cc1cccc(C(=O)Nc2nc3c(s2)CCCC3)c1` [NCGC00118410-01] as the compound, how does the IC50 read?
A: 2.48 µM

Q: `O=C(Nc1nc2c(s1)CCCC2)c1ccccc1F` [NCGC00118438-01] was tested. Which IC50 did it give?
A: 0.556 µM

Q: How did the IC50 turn out when `COc1cccc(C(=O)Nc2ccc3nc(SCC(=O)N4CCOCC4)sc3c2)c1` [NCGC00118677-01] was run?
A: 9.89 µM

Q: With `Cc1cccc(NC(=O)c2cc(-c3ccc4c(c3)OCCO4)on2)c1` [NCGC00118828-01] as the compound, how does the IC50 read?
A: 0.442 µM

Q: How did the IC50 turn out when `O=C(Nc1cccc(Cl)c1)c1cc(-c2ccc3c(c2)OCCO3)on1` [NCGC00118845-01] was run?
A: 0.624 µM

Q: Which IC50 does the source give for `CC(=O)Nc1ccc(NC(=O)c2cc(-c3ccc4c(c3)OCCO4)on2)cc1` [NCGC00118853-01] here?
A: 0.624 µM

Q: With `O=C(Nc1cccc(Br)c1)c1cc(-c2ccc3c(c2)OCCO3)on1` [NCGC00118911-01] as the compound, how does the IC50 read?
A: 0.989 µM

Q: For `Cc1ccc(Cl)cc1NC(=O)c1cc(-c2ccc3c(c2)OCCO3)on1` [NCGC00118917-01], which IC50 is on record?
A: 1.76 µM

Q: How did the IC50 turn out when `Cc1c(NC(=O)C(C)(C)C)cccc1-c1nc2ccccc2s1` [NCGC00118970-01] was run?
A: 5.56 µM

Q: Which IC50 does the source give for `COc1ccc(OCC(=O)Nc2cccc(-c3nc4ccccc4s3)c2C)cc1` [NCGC00118972-01] here?
A: 7.85 µM

Q: With `Cc1c(N[S+](C)(=O)[O-])cccc1-c1nc2ccccc2s1` [NCGC00118990-01] as the compound, how does the IC50 read?
A: 9.89 µM

Q: Which IC50 does the source give for `CC(C)(C)C(=O)Nc1ccc(-c2nc3ccccc3s2)cc1` [NCGC00118992-01] here?
A: 0.0197 µM

Q: For `O=C(COc1ccccc1F)Nc1ccc(-c2nc3ccccc3s2)cc1` [NCGC00118994-02], which IC50 is on record?
A: > 30 µM

Q: `C[S+](=O)([O-])Nc1ccc(-c2nc3ccccc3s2)cc1` [NCGC00118996-01] was tested. Which IC50 did it give?
A: 2.21 µM

Q: Which IC50 does the source give for `Cc1ccc(C(=O)Nc2ccc3oc(-c4ccccc4C)nc3c2)cc1` [NCGC00118998-01] here?
A: > 30 µM

Q: How did the IC50 turn out when `COc1ccc(-c2nc3ccc(N[S+](C)(=O)[O-])cc3o2)cc1` [NCGC00119094-01] was run?
A: 5.56 µM

Q: How did the IC50 turn out when `O=C(COc1ccccc1[N+](=O)[O-])Nc1ccc(-c2nc3ccccc3s2)cc1` [NCGC00119127-01] was run?
A: > 30 µM

Q: Which IC50 does the source give for `CC(C)Oc1ccc(C(=O)Nc2ccc(-c3nc4ccccc4s3)cc2)cc1` [NCGC00119129-01] here?
A: > 30 µM

Q: `COc1ccccc1OC(C)C(=O)Nc1ccc(-c2nc3ccccc3s2)cc1` (stereo not shown) [NCGC00119131-01] was tested. Which IC50 did it give?
A: > 30 µM

Q: How did the IC50 turn out when `CC(Oc1ccccc1F)C(=O)Nc1ccc(-c2nc3ccccc3s2)cc1` (stereo not shown) [NCGC00119149-01] was run?
A: 8.81 µM

Q: `Cc1cc(C)cc(OCC(=O)Nc2ccc(-c3nc4ccccc4s3)cc2)c1` [NCGC00119151-01] was tested. Which IC50 did it give?
A: > 30 µM

Q: With `Cc1ccc(OCC(=O)Nc2cccc(-c3nc4ccccc4s3)c2)cc1` [NCGC00119153-02] as the compound, how does the IC50 read?
A: 9.89 µM

Q: Which IC50 does the source give for `O=C(COc1ccccc1[N+](=O)[O-])Nc1cccc(-c2nc3ccccc3s2)c1` [NCGC00119155-01] here?
A: > 30 µM

Q: For `COc1ccccc1OC(C)C(=O)Nc1cccc(-c2nc3ccccc3s2)c1` (stereo not shown) [NCGC00119157-01], which IC50 is on record?
A: 8.81 µM

Q: How did the IC50 turn out when `CCCCC(=O)Nc1cccc(-c2nc3ccccc3s2)c1` [NCGC00119159-01] was run?
A: 11.1 µM

Q: How did the IC50 turn out when `CCOc1ccccc1C(=O)Nc1cccc(-c2nc3ccccc3s2)c1` [NCGC00119161-01] was run?
A: 11.1 µM

Q: Which IC50 does the source give for `CCC(CC)C(=O)Nc1cccc(-c2nc3ccccc3s2)c1` [NCGC00119163-01] here?
A: 15.7 µM

Q: For `CCOc1ccccc1C(=O)Nc1nc2c(s1)CC(C)CC2` (stereo not shown) [NCGC00119172-01], which IC50 is on record?
A: 4.42 µM

Q: For `Cc1c(C(=O)Nc2cccc(-c3nc4ccccc4s3)c2)oc2ccccc12` [NCGC00119181-01], which IC50 is on record?
A: > 30 µM

Q: With `Cc1c(C(=O)Nc2cccc(-c3nc4ccccc4s3)c2)oc2ccc(F)cc12` [NCGC00119183-01] as the compound, how does the IC50 read?
A: > 30 µM

Q: Which IC50 does the source give for `Cc1ccc2oc(C(=O)Nc3cccc(-c4nc5ccccc5s4)c3)c(C)c2c1` [NCGC00119185-01] here?
A: 9.89 µM

Q: For `COc1ccccc1-c1noc(-c2ccc(N3CCN(C)CC3)c([N+](=O)[O-])c2)n1` [NCGC00119222-01], which IC50 is on record?
A: 4.95 µM

Q: How did the IC50 turn out when `CC(C)(C)C1CCc2nc(NC(=O)c3cccc(Cl)c3)sc2C1` (stereo not shown) [NCGC00119231-01] was run?
A: 2.48 µM

Q: `COc1ccc(-c2noc(-c3ccc(N4CCN(C)CC4)c([N+](=O)[O-])c3)n2)cc1` [NCGC00119282-01] was tested. Which IC50 did it give?
A: 15.7 µM

Q: Which IC50 does the source give for `Cc1ccccc1-c1noc(-c2ccc(N3CCCC3)c([N+](=O)[O-])c2)n1` [NCGC00119417-01] here?
A: 11.1 µM

Q: How did the IC50 turn out when `O=C(COc1ccccc1)Nc1nnc([S+](=O)([O-])Nc2ccccc2)s1` [NCGC00120845-01] was run?
A: 14 µM

Q: Which IC50 does the source give for `Cc1cccc(CCNC(=O)c2sc3nc4n(c(=O)c3c2C)CCCC4)c1` [NCGC00121158-01] here?
A: > 30 µM

Q: With `Cc1ccc(NC(=O)c2oc3ccc4c(c3c2C)C(=O)CC(C)(C)O4)c(C)c1` [NCGC00122260-01] as the compound, how does the IC50 read?
A: 9.89 µM

Q: With `Cc1nnc(SCc2ccccc2)c2cc3sccc3n12` [NCGC00122277-01] as the compound, how does the IC50 read?
A: 14 µM

Q: For `CCOc1cccc2cc(-c3nc(-c4ccccc4C)no3)c(=O)oc12` [NCGC00123322-01], which IC50 is on record?
A: 3.13 µM

Q: With `O=c1oc2ccc(F)cc2cc1-c1nc(-c2cccs2)no1` [NCGC00123380-01] as the compound, how does the IC50 read?
A: 3.13 µM

Q: `Cc1ccc2oc(=O)c(-c3nc(-c4cccs4)no3)cc2c1` [NCGC00123382-01] was tested. Which IC50 did it give?
A: > 30 µM

Q: For `COc1ccc(-c2cn3nc(N4CCCC(C(=O)NCc5ccccc5OC)C4)sc3n2)cc1` (stereo not shown) [NCGC00123654-01], which IC50 is on record?
A: 11.1 µM

Q: Which IC50 does the source give for `O=C(NCc1cccc(Cl)c1)C1CCCN(c2nn3cc(-c4ccc(F)cc4)nc3s2)C1` (stereo not shown) [NCGC00123714-01] here?
A: 8.81 µM

Q: With `CCc1ccc(CNC(=O)C2CCCN(c3nn4cc(-c5ccc(F)cc5)nc4s3)C2)cc1` (stereo not shown) [NCGC00123722-01] as the compound, how does the IC50 read?
A: > 30 µM

Q: With `Cc1ccc(CSc2nc3cccnc3n2Cc2ccc(C(=O)NCc3ccco3)cc2)cc1` [NCGC00123842-01] as the compound, how does the IC50 read?
A: 0.624 µM

Q: For `Cc1ccc(CSc2nc3cccnc3n2Cc2ccc(C(=O)NC3CC3)cc2)cc1` [NCGC00123844-01], which IC50 is on record?
A: 0.394 µM

Q: How did the IC50 turn out when `COc1ccc(NC(=O)Cn2c(SCc3ccc(C)cc3)nc3cccnc32)cc1OC` [NCGC00123978-01] was run?
A: 0.7 µM

Q: How did the IC50 turn out when `COc1cc(OC)c(NC(=O)Cn2c(SCc3ccccc3F)nc3cccnc32)cc1Cl` [NCGC00124034-02] was run?
A: > 30 µM

Q: How did the IC50 turn out when `Cc1ccc(Nc2ncnc3c2nc2n3CCCC2)c(Br)c1` [NCGC00124653-01] was run?
A: 4.95 µM

Q: With `CCc1cccc(NC(=O)c2cc(-c3ccccc3)n[nH]2)c1` [NCGC00125661-01] as the compound, how does the IC50 read?
A: 2.79 µM

Q: How did the IC50 turn out when `CC1CCCN(C(=O)c2cc3ccc4cccnc4c3[nH]2)C1` (stereo not shown) [NCGC00126906-01] was run?
A: 0.556 µM

Q: With `O=C(c1cc2ccc3cccnc3c2[nH]1)N1CCCCC1` [NCGC00126930-01] as the compound, how does the IC50 read?
A: 1.57 µM
